Source: patent publication US20240315989A1 (priority 2021, published 2024)

Experiments:
[1] = tested on: COVID-19 (SARS-CoV-2 infection)

COCCCC/C(=N\OCCN)c1ccc(C(F)(F)F)cc1.O=C(O)/C=C\C(=O)O [fluvoxamine, 5-methoxy-4′-(trifluoromethyl)valerophenone-(E)-O-(2-aminoethyl)oxime maleate (1:1)]
Clinical status on 7-point scale, difference between group means vs placebo [1]: −0.22 | Most severe baseline symptom change score, difference between group means vs placebo [1]: 0.3 | 30-d post trial observation events, % ([1]; 30 days after day 15): (1.3) % | Most severe baseline symptom change score (difference between baseline and final rating) ([1]; day 0 to day 15, 0-10 scale): −5.6 | 30-d post trial observation events, absolute difference vs placebo ([1]; difference in proportions): −0.1 | Absolute difference vs placebo, 7-point scale 0 (none) ([1]; difference in proportions): 8.3 | Absolute difference vs placebo, 7-point scale 1 ([1]; difference in proportions): −2.8 | Absolute difference vs placebo, 7-point scale 3 ([1]; difference in proportions): −4.2 | Absolute difference vs placebo, 7-point scale 5 ([1]; difference in proportions): −1.4 | Absolute difference vs placebo, 7-point scale any nonzero value ([1]; difference in proportions): −8.3 | Clinical status on 7-point scale, mean (SD) ([1]; n = 80): 0 | WHO scale, 0-1 = uninfected or ambulatory, % ([1]; n = 80): (100%) | WHO scale, 2 = limitation of activities, % ([1]; n = 80): (0%) | WHO scale, 2 = limitation of activities, No ([1]; n = 80): 0 | WHO scale, 3 = hospitalized, no O2 needed, % ([1]; n = 80): (0%) | WHO scale, 3 = hospitalized, no O2 needed, No ([1]; n = 80): 0 | WHO scale, 4 = hospitalized, O2 needed, % ([1]; n = 80): (0%) | WHO scale, 4 = hospitalized, O2 needed, No ([1]; n = 80): 0 | WHO scale, 5 = non-invasive vent or high-flow O2, % ([1]; n = 80): (0%) | WHO scale, 5 = non-invasive vent or high-flow O2, No ([1]; n = 80): 0 | WHO scale, 6 = ventilator needed, % ([1]; n = 80): (0%) | WHO scale, 6 = ventilator needed, No ([1]; n = 80): 0 | WHO scale, 7 = ventilator + additional organ support, % ([1]; n = 80): (0%) | WHO scale, 7 = ventilator + additional organ support, No ([1]; n = 80): 0 | WHO scale, 8 = Death, % ([1]; n = 80): (0%) | WHO scale, total participants with values >1, % ([1]; n = 80): (0%) | WHO scale, total participants with values >1, No ([1]; n = 80): 0 | 7-point scale, 1 = O2 sat <92% but no supplemental O2, % ([1]; n = 80, 15 days): (0%) | 7-point scale, 1 = O2 sat <92% but no supplemental O2, No ([1]; n = 80, 15 days): 0 | 7-point scale, 2 = Above + supplemental O2 needed, % ([1]; n = 80, 15 days): (0%) | 7-point scale, 2 = Above + supplemental O2 needed, No ([1]; n = 80, 15 days): 0 | 7-point scale, 3 = Above + hospitalization needed, % ([1]; n = 80, 15 days): (0%) | 7-point scale, 3 = Above + hospitalization needed, No ([1]; n = 80, 15 days): 0 | 7-point scale, 4 = Above + ventilator needed (<3 days), % ([1]; n = 80, 15 days): (0%) | 7-point scale, 4 = Above + ventilator needed (<3 days), No ([1]; n = 80, 15 days): 0 | 7-point scale, 5 = Above + ventilator needed (≥3 days), % ([1]; n = 80, 15 days): (0%) | 7-point scale, 5 = Above + ventilator needed (≥3 days), No ([1]; n = 80, 15 days): 0 | 7-point scale, 6 = Death, % ([1]; n = 80, 15 days): (0%) | 7-point scale, total participants with values >0 (any nonzero value), No ([1]; n = 80, 15 days): 0 | 7-point scale, total participants with values >0, % ([1]; n = 80, 15 days): (0%) | 30-d post trial observation events (emergency department visit, hospitalization, or both), No. ([1]; of 80, 30 days after day 15): 1 | Maximum dose tolerated over 15 days 200 mg/day (100 twice daily), % (STOP COVID trial dosing): (45%) | Maximum dose tolerated over 15 days 200 mg/day (100 twice daily), Number (STOP COVID trial dosing): 36 | Maximum dose tolerated over 15 days 300 mg/day (100 three times daily), % (STOP COVID trial dosing): (50%) | Maximum dose tolerated over 15 days 300 mg/day (100 three times daily), Number (STOP COVID trial dosing): 40 | Not able to reach 200 mg/day, % (STOP COVID trial dosing): (5%) | Not able to reach 200 mg/day, Number (STOP COVID trial dosing): 4 | Acute on chronic respiratory failure, % (StopCovid, N = 80): (0%) | Acute on chronic respiratory failure, number (StopCovid, N = 80): 0 | Bacterial infection, % (StopCovid, N = 80): (1.3%) | Bacterial infection, number (StopCovid, N = 80): 1 | Chest pain or tightness, % (StopCovid, N = 80): (0%) | Chest pain or tightness, number (StopCovid, N = 80): 0 | Fever, % (StopCovid, N = 80): (0%) | Fever, number (StopCovid, N = 80): 0 | Flank pain, % (StopCovid, N = 80): (0%) | Flank pain, number (StopCovid, N = 80): 0 | Gastroenteritis, nausea, or vomiting, % (StopCovid, N = 80): (1.3%) | Gastroenteritis, nausea, or vomiting, number (StopCovid, N = 80): 1 | Headache or head pain, % (StopCovid, N = 80): (2.5%) | Headache or head pain, number (StopCovid, N = 80): 2 | Number of patients with any serious adverse event (StopCovid, N = 80): 1 | Number of patients with any serious adverse event, % (StopCovid, N = 80): (1.3%) | Number with any adverse event (StopCovid, N = 80): 12 | Number with any adverse event, % (StopCovid, N = 80): (15%) | Pneumonia, % (StopCovid, N = 80): (3.8%) | Pneumonia, number (StopCovid, N = 80): 3 | Shortness of breath, % (StopCovid, N = 80): (2.5%) | Shortness of breath, number (StopCovid, N = 80): 2 | Teeth chattering, % (StopCovid, N = 80): (1.3%) | Teeth chattering, number (StopCovid, N = 80): 1 | Vasovagal syncope, % (StopCovid, N = 80): (1.3%) | Vasovagal syncope, number (StopCovid, N = 80): 1 | hypercapnia, % (StopCovid, N = 80): (0%) | hypercapnia, number (StopCovid, N = 80): 0 | muscle aches, % (StopCovid, N = 80): (1.3%) | muscle aches, number (StopCovid, N = 80): 1 | Acute respiratory failure, No. of adverse events (%) (n = 80, 15 days): 0 No. (%) | Bacterial infection, No. of adverse events (%) (n = 80, 15 days): 1 (1.3) No. (%) | Chest pain or tightness, No. of adverse events (%) (n = 80, 15 days): 0 No. (%)
